Laboratory results as given in patent US5607967A, “Treatment of alzheimer's disease with 5-(tetradecyloxy)-2-furan carboxylic acid” (Merck & Co., Inc., priority 1994, dated 1997).

Columns and labels:
GR/NER chimeric receptor = assay: Activation of GR/NER in CV1 cells (luciferase); details: for Fold of stimulation GR/NER, Control: without dopamine
Protocol: The ligand dependent transcription assays were performed as described in Example 4, using CV1 cells in place of COS cells. The transfected CV1 cells were treated with dopamine, TOFA, or with a combination of TOFA and dopamine at the indicated concentrations and tested for luciferase activity.
CV1 cells were co-transfected with the MMTV-Luciferase reporter gene (pJA358) and the GR/NER chimeric receptor as described in Example 4. The cells were treated with increasing amount of the dopamine D1 receptor antagonist SCH 23390 with or without 50 μM […] dopamine.

[1] = test system: Dopamine D1 receptor antagonist (SCH 23390) induced catalepsy; assay: SCH 23390 induced catalepsy (Bar method); format: in vivo, rat; details: carrier pretreatment, 24 h later 0.5 mg/kg SCH23390
Protocol: Rats were pretreated with 0.4 mg/kg TOFA or with carrier (S.C.). Twenty-four hours later, the rats were challenged with 0.5 mg/kg SCH23390, a Dopamine D1 antagonist, and the duration of catalepsy was monitored.
Catalepsy was determined by a modification of the Bar method (Undie and Friedman, 1988). A steel bar, 1.1 cm in diameter and 50 cm long, was suspended at a height of 10 cm above the working surface. Three sides of the bench around the bar were walled off with brown cardboard, and the linings on the bench surface were selected to be of the same color with the cardboard walls. The animal's hind limbs were freely placed on the bench, the fail laid out to the back, and the forelimbs placed over the bar. The length of time a rat stayed up on the bar was noted up to a preset cut-off point of 120 s. The time was counted off upon observing any of the following actions: (1) the animal came off, placing its two forepaws on the bench, (2) the animal climbed onto or over the bar with both hind limbs, (3) the animal initiated locomotion along or around the bar. Subsequently, time readings were translated into scores by awarding a score of 1 for each successfully completed 5 s on the bar. For each observation time, catalepsy scores were averaged for all the animals in a group to give the Mean Score of the group at that observation time. Further, the scores for each animal at all the observation times were added to give the total score for that animal. The mean of this last group of numbers was called the Mean Total Score of the group.
Catalepsy scores were analyzed by computer in accordance with the statistical procedures outlined by Winer, B. J.: Statistical principles in experimental design. McGraw-Hill, New York, pp. 10-428, 1971. Generally, for a given set of comparisons, observations were subjected to an appropriate analysis of variance followed by two-tailed Dunnett or Student's t-tests to detect differences between treatment groups.

[2] = chronic treatment, medial cholinergic pathway lesions; cited from earlier work
[3] = target: T1, GR/PPAR chimeric receptor (Mus musculus, UniProt P23204); assay: Ligand dependent transcription assay, GR/PPAR chimeric receptor with MMTV-luciferase reporter; format: cell-based
T1 construct: COS cells, MMTV-luciferase
T1 sequence (P23204 1-468): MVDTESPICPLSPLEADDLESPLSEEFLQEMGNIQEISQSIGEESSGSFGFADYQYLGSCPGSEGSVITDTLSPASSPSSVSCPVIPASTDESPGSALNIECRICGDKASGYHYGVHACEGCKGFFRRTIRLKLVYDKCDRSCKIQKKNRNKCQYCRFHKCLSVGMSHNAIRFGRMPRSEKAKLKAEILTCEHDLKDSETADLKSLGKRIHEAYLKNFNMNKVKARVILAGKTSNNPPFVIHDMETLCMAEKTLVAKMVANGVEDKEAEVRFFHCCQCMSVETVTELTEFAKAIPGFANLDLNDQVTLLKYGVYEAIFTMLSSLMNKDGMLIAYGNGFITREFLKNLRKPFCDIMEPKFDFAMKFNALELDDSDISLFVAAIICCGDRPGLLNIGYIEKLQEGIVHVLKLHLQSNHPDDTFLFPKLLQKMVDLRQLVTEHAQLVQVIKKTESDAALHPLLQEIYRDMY
T1 sequence (P06537 1-792 partner): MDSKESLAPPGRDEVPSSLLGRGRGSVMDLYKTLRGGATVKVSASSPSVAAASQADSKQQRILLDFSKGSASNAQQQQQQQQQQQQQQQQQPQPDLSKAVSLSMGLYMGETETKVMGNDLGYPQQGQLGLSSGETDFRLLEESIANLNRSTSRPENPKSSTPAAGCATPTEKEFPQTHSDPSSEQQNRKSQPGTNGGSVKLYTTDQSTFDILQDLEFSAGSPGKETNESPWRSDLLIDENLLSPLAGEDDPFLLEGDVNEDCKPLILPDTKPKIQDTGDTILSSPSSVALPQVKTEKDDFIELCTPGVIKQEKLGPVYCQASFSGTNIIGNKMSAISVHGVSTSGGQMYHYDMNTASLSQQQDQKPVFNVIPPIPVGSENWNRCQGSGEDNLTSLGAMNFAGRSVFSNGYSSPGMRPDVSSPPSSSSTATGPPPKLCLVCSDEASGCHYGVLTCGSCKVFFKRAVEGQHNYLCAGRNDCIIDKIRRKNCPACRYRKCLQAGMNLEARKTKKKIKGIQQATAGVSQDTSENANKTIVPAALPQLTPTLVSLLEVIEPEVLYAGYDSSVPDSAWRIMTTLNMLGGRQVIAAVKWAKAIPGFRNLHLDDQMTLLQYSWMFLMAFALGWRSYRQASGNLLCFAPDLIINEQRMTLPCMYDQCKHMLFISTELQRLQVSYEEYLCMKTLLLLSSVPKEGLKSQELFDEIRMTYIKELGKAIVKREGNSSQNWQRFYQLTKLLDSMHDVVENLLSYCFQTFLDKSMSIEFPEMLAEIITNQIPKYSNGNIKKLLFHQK
Protocol: Similar hybrid receptors GR/NER, GR/NUC and GR/PPAR, in identical expression plasmid backgrounds were prepared essentially as described for the construction of the GR/mPPAR and GR/NUC chimeric receptors in Schmidt et al., "Identification of a new member of the steroid hormone receptor superfamily that is activated by a peroxisome proliferator and fatty acids," Mol. Endocrinol., 6(10):1634-41, 1992, and in Boie et al., "Enantioselective activation of the peroxisome proliferator-activated receptor", J. Biol. Chem. 268(8):5530-4, 1993.
Briefly, the amino terminal portion of the mouse glucocorticoid receptor (mGR), that includes the DNA binding domain was fused to the putative ligand binding domains of the nuclear receptor NER, hNUC-I (Schmidt et al., 1992), mPPAR (Issenmann and Green, 1990) to form the respective chimeric receptors GR/NER, GR/NUC and GR/PPAR. The GR/NER chimeric receptor was constructed as described for the GR/NUC and GR/PPAR hybrid receptors (Schmidt et al., 1992; Boie et al). The cDNA sequences coding for amino acids Arg^155 and Glu^156 of the NER receptor were converted to the Xho I restriction site, that was later used for the ligation to the GR cDNA sequences that coded for the DNA binding domain. Thus, converting amino acid residues Arg^155 and Glu^156 of NER receptor to amino acid residues Ser^155 and His^156.
The ligand transcription assay mediated by GR/PPAR in COS cells was performed as described in Example 4. The cells were treated with TOFA and Cerulenin at 0.1, 1, 10 and 100 μM.

[4] = Toxicity to transfected COS cells in the transcription assay; format: cell-based; details: monkey, GR/PPAR transcription assay, read-out: Concentrations toxic to the cells
Protocol: The ligand transcription assay mediated by GR/PPAR in COS cells was performed as described in Example 4. The cells were treated with TOFA and Cerulenin at 0.1, 1, 10 and 100 μM. Concentrations of cerulenin above 10 μM were toxic to the cells.

Row | Compound | Effect on transcription mediated by GR/NER in CV1 cells (GR/NER chimeric receptor) | Effect on inhibition of luciferase expression caused by dopamine (GR/NER chimeric receptor; 50 μM dopamine) | Fold of stimulation GR/NER, Dopamine (50 μM) (GR/NER chimeric receptor; SCH-23390 0.1 μM with 50 μM dopamine) [fold] | Fold of stimulation GR/NER, Control (GR/NER chimeric receptor; SCH-23390 0.1 μM) [fold] | Fold of stimulation GR/NER, Dopamine (50 μM) (GR/NER chimeric receptor; SCH-23390 1.0 μM with 50 μM dopamine) [fold] | Fold of stimulation GR/NER, Control (GR/NER chimeric receptor; SCH-23390 1.0 μM) [fold] | Fold of stimulation GR/NER, Dopamine (50 μM) (GR/NER chimeric receptor; SCH-23390 10.0 μM with 50 μM dopamine) [fold] | Fold of stimulation GR/NER, Control (GR/NER chimeric receptor; SCH-23390 10.0 μM) [fold] | Fold of stimulation GR/NER, Dopamine (50 μM) (GR/NER chimeric receptor; SCH-23390 100 μM with 50 μM dopamine) [fold] | Fold of stimulation GR/NER, Control (GR/NER chimeric receptor; SCH-23390 100 μM) [fold] | Catalepsy Duration [1] [s] | Radial-arm maze performance [2] | Expression mediated by GR/PPAR [3] | fold induction at 0.1 µM ([3]; 0.1 μM, COS cells, Table 2, read-out: Fold of stimulation GR/PPAR) | fold induction at 1 µM ([3]; 1.0 μM, COS cells, Table 2, read-out: Fold of stimulation GR/PPAR) | fold induction at 10 µM ([3]; 10.0 μM, COS cells, Table 2, read-out: Fold of stimulation GR/PPAR) | MCC [4] [µM]
1 | CN1CCc2cc(Cl)c(O)cc2C(c2ccccc2)C1 (single isomer, unassigned) [SCH-23390, 8-chloro-2,3,4,5-tetrahydro-3-methyl-5-phenyl-1H-3-benzazepin-7-ol hemimaleate] | stimulated the transcription | can reverse the inhibition of luciferase expression | 0.59 ± 0.06 | 1.32 ± 0.15 | 0.55 ± 0.09 | 1.22 ± 0.11 | 0.83 ± 0.12 | 1.64 ± 0.38 | 2.61 ± 0.86 | 2.38 ± 0.19 | 3.1 ± 1.3 | reversed the lesion-induced impaired performance |  |  |  |  | 
2 | C/C=C/C/C=C/CCC(=O)[C@H]1O[C@H]1C(N)=O [Cerulenin, cerulenin, reference compound] |  |  |  |  |  |  |  |  |  |  |  |  | did not stimulate transcription | 1.03 ± 0.12 | 1.13 ± 0.05 | 0.58 ± 0.11 | > 10
